Structures can show the parent of a compound that is named as a salt.
Experiments:
[1] = test system: annual weeds: Common Crabgrass (Digitaria sanguinalis), Goosegrass (Eleusine indica), Bitter Fleabane (Erigeron acer); details: CD Observation Method visual score (2.0-10.0); 60 g/mou glyphosate, field spray; observed 2.5, 5, 7 and 11 days after application
Text: (§1) A CD Observation Method was used to make records.
(§2) Assessment Criteria of the CD Observation Method
(§3) A visual method was used with the following criteria: • 2.0 mild poisoning symptom in a spot of leaves • 4.0 a few leaves lost green or turned yellow while the plant growth was substantially normal • 6.0 leaves lost green or turned yellow or some leaves withered, while the stalk was nearly normal, and was yet able to grow slowly • 8.0 caulicle or inflorescence and rachis of leaves withered; most of stalk turned yellow or lost green mildly and was unable to grow normally; the plant died locally • 10.0 the whole plant died

[2] = test system: perennial weeds: Alligator Alternanthera Herb (Alternanthera philoxeroides); details: CD Observation Method visual score (2.0-10.0); 60 g/mou glyphosate, field spray; observed 2.5, 5, 7 and 11 days after application
Text: as §1, §2, §3

weeds = details: field plot 2 m×2.5 m, spray, effective ingredient 60 g/mou (based on glyphosate) diluted by water to 30 l/mou
Procedure: A sample was taken in an effective ingredient amount of 60 g/mou (based on glyphosate), and was diluted by water to 30 l/mou. The resulting diluted liquor was evenly sprayed into a test field plot with an area of 2 m×2.5 m, repeated twice. […] A CD Observation Method was used to make records.

In the case of `O=C(O)CNCP(=O)(O)O` [dimethylamine salt of N-phosphonomethyl glycine], the “Control on annual weeds” value [1] is reported as 9.6, the “Control on perennial weeds” value [2] is reported as 9.4 and the “Days for weeds to die” value (weeds) is reported as 9~11 d.

From US9221853B2, “Glyphosate dimethylamine salt crystal, preparation method and use thereof” (ZHEJIANG WYNCA CHEMICAL INDUSTRY GROUP CO., LTD., priority 2009, dated 2015)
